Source: ChEMBL document CHEMBL6096702, “Discovery of a Novel p38α-MK2 Complex Inhibitor as a Potential Choice for Autoimmune Diseases” (J Med Chem, 2025)

Test: Inhibition of N-terminal GST-tagged wildtype human P38alpha (4 to 152 residues) extracted from Escherichia coli/GST-tagged MK2 (unknown origin) assessed as reduction in HSP27 phosphorylation incubated for 2 hrs in presence of ATP and HSP27-FITC peptide by fluorescence polarization based IMAP assay
Settings: not given

IC50 [µM] | SMILES
1.54 | Cc1cnc(-c2ccnc(C(C)(C)O)n2)cc1-n1c(C)cc(COc2ncc(F)cc2F)c(Cl)c1=O
0.0036 | Cc1ccc(-c2ccnc(C(C)(C)O)n2)cc1-n1c(C)cc(OCc2ncc(F)cc2F)c(Cl)c1=O
0.034 | C=Cc1c(O[C@@H](C)c2ncc(F)cc2F)cc(C)n(-c2c(C)cnc(-c3ccnc(C(C)(C)O)n3)c2F)c1=O
0.088 | Cc1cnc(-c2ccnc(C(C)(C)O)n2)cc1-n1c(C)cc(OCc2ncc(F)cc2F)c(C)c1=O
0.003 | Cc1cnc(-c2cccc(C(C)(C)O)n2)cc1-n1c(C)cc(OCc2ncc(F)cc2F)c(Cl)c1=O
> 10 | Cc1cnc(-c2ccnc(C(C)(C)O)n2)cc1-c1c(F)cc(OCc2ncc(F)cc2F)c(Cl)c1C
> 1 | Cc1cnc(-c2ccnc(C(C)(C)O)n2)cc1-n1c(C)cc(O[C@@H](C)c2ncc(F)cc2F)c(Cl)c1=O
0.0839 | Cc1cnc(-c2ccnc(C(C)(C)O)n2)cc1-c1c(C)cc(OCc2ncc(F)cc2F)c(Cl)[n+]1[O-]
> 10 | Cc1cnc(-c2ccnc(C(C)(C)O)n2)nc1-n1c(C)cc(OCc2ncc(F)cc2F)c(Cl)c1=O
0.0016 | Cc1cnc(-c2cccc(C(C)(C)O)c2F)c(F)c1-n1c(C)cc(O[C@@H](C)c2ncc(F)cc2F)c(C)c1=O
0.032 | Cc1cnc(-c2ccnc(C(C)(C)O)n2)c(F)c1-n1c(C)cc(O[C@@H](C)c2ncc(F)cc2F)c(C2CC2)c1=O
> 10 | Cc1cnc(-c2ccnc(C(C)(C)O)n2)cc1-c1c(C)cc(OCc2ncc(F)cc2F)c[n+]1[O-]
0.0226 | Cc1cnc(-c2ccnc(C(C)(C)O)n2)cc1-n1c(C)cc(SCc2ncc(F)cc2F)c(Cl)c1=O
> 1 | C=C(C)c1c(O[C@@H](C)c2ncc(F)cc2F)cc(C)n(-c2c(C)cnc(-c3ccnc(C(C)(C)O)n3)c2F)c1=O
> 10 | Cc1cnc(-c2ccnc(C(C)(C)O)n2)cc1N1CCC(OCc2ncc(F)cc2F)CC1=O (stereo unspecified)
0.004 | Cc1cnc(-c2ccnc(C(C)(C)O)n2)c(F)c1-n1c(C)cc(OCc2ncc(F)cc2F)c(C)c1=O
0.0016 | Cc1cnc(-c2cccc(C(C)(C)O)c2F)cc1-n1c(C)cc(O[C@@H](C)c2ncc(F)cc2F)c(Cl)c1=O
0.0005 | Cc1cnc(-c2cccc(C(C)(C)O)c2)c(F)c1-n1c(C)cc(OCc2ncc(F)cc2F)c(Cl)c1=O
0.004 | CCc1c(O[C@@H](C)c2ncc(F)cc2F)cc(C)n(-c2c(C)cnc(-c3ccnc(C(C)(C)O)n3)c2F)c1=O
0.026 | COc1c(O[C@@H](C)c2ncc(F)cc2F)cc(C)n(-c2c(C)cnc(-c3ccnc(C(C)(C)O)n3)c2F)c1=O
0.0172 | Cc1cnc(-c2cc(C(C)(C)O)ccc2F)c(F)c1-n1c(C)cc(OCc2ncc(F)cc2F)c(Cl)c1=O

Test: Inhibition of N-terminal GST-tagged wildtype human P38alpha (4 to 152 residues) extracted from Escherichia coli/GST-tagged PRAK (unknown origin) assessed as reduction in HSP27 phosphorylation incubated for 2 hrs in presence of ATP and HSP27-FITC peptide by fluorescence polarization based IMAP assay
Settings: not given

IC50 [µM] | SMILES
2.9 | Cc1ccc(-c2ccnc(C(C)(C)O)n2)cc1-n1c(C)cc(OCc2ncc(F)cc2F)c(Cl)c1=O
0.999 | Cc1cnc(-c2cccc(C(C)(C)O)n2)cc1-n1c(C)cc(OCc2ncc(F)cc2F)c(Cl)c1=O
0.394 | Cc1cnc(-c2cccc(C(C)(C)O)c2F)c(F)c1-n1c(C)cc(O[C@@H](C)c2ncc(F)cc2F)c(C)c1=O
5.32 | Cc1cnc(-c2ccnc(C(C)(C)O)n2)c(F)c1-n1c(C)cc(OCc2ncc(F)cc2F)c(C)c1=O
0.504 | Cc1cnc(-c2cccc(C(C)(C)O)c2F)cc1-n1c(C)cc(O[C@@H](C)c2ncc(F)cc2F)c(Cl)c1=O
0.506 | Cc1cnc(-c2cccc(C(C)(C)O)c2)c(F)c1-n1c(C)cc(OCc2ncc(F)cc2F)c(Cl)c1=O
0.0029 | Cc1cnc(-c2cc(C(C)(C)O)ccc2F)c(F)c1-n1c(C)cc(OCc2ncc(F)cc2F)c(Cl)c1=O

Test: Selectivity ratio of IC50 for inhibition of N-terminal GST-tagged wildtype human P38alpha (4 to 152 residues) extracted from Escherichia coli/GST-tagged PRAK (unknown origin) to IC50 for inhibition of N-terminal GST-tagged wildtype human P38alpha (4 to 152 residues) extracted from Escherichia coli/GST-tagged MK2 (unknown origin)
Settings: not given

Ratio IC50 | SMILES
805 | Cc1ccc(-c2ccnc(C(C)(C)O)n2)cc1-n1c(C)cc(OCc2ncc(F)cc2F)c(Cl)c1=O
333 | Cc1cnc(-c2cccc(C(C)(C)O)n2)cc1-n1c(C)cc(OCc2ncc(F)cc2F)c(Cl)c1=O
246 | Cc1cnc(-c2cccc(C(C)(C)O)c2F)c(F)c1-n1c(C)cc(O[C@@H](C)c2ncc(F)cc2F)c(C)c1=O
1330 | Cc1cnc(-c2ccnc(C(C)(C)O)n2)c(F)c1-n1c(C)cc(OCc2ncc(F)cc2F)c(C)c1=O
315 | Cc1cnc(-c2cccc(C(C)(C)O)c2F)cc1-n1c(C)cc(O[C@@H](C)c2ncc(F)cc2F)c(Cl)c1=O
1010 | Cc1cnc(-c2cccc(C(C)(C)O)c2)c(F)c1-n1c(C)cc(OCc2ncc(F)cc2F)c(Cl)c1=O
0.2 | Cc1cnc(-c2cc(C(C)(C)O)ccc2F)c(F)c1-n1c(C)cc(OCc2ncc(F)cc2F)c(Cl)c1=O

Test: AUClast in male Sprague-Dawley rat at 1 mg/kg, iv measured after 24 hrs by LC-MS/MS analysis
Assay type: ADME, organism-based
Settings: in vivo

AUC(0-t) at 24 h [µg·h/mL] | SMILES
1.17 | Cc1cnc(-c2ccnc(C(C)(C)O)n2)c(F)c1-n1c(C)cc(OCc2ncc(F)cc2F)c(C)c1=O
1.8 | Cc1cnc(-c2cccc(C(C)(C)O)c2)c(F)c1-n1c(C)cc(OCc2ncc(F)cc2F)c(Cl)c1=O

Test: Clearance in male Sprague-Dawley rat at 1 mg/kg, iv measured after 24 hrs by LC-MS/MS analysis
Assay type: ADME, organism-based
Settings: in vivo

clearance [L/h/kg] | SMILES
0.834 | Cc1cnc(-c2ccnc(C(C)(C)O)n2)c(F)c1-n1c(C)cc(OCc2ncc(F)cc2F)c(C)c1=O
0.6 | Cc1cnc(-c2cccc(C(C)(C)O)c2)c(F)c1-n1c(C)cc(OCc2ncc(F)cc2F)c(Cl)c1=O

Test: Volume of distribution at steady state in male Sprague-Dawley rat at 1 mg/kg, iv measured after 24 hrs by LC-MS/MS analysis
Assay type: ADME, organism-based
Settings: in vivo, read-out: Vdss

Vd [L/kg] | SMILES
0.9 | Cc1cnc(-c2ccnc(C(C)(C)O)n2)c(F)c1-n1c(C)cc(OCc2ncc(F)cc2F)c(C)c1=O
0.7 | Cc1cnc(-c2cccc(C(C)(C)O)c2)c(F)c1-n1c(C)cc(OCc2ncc(F)cc2F)c(Cl)c1=O

Test: Half-life in male Sprague-Dawley rat at 1 mg/kg, iv measured after 24 hrs by LC-MS/MS analysis
Assay type: ADME, organism-based
Settings: in vivo

half-life [h] | SMILES
0.9 | Cc1cnc(-c2ccnc(C(C)(C)O)n2)c(F)c1-n1c(C)cc(OCc2ncc(F)cc2F)c(C)c1=O
1.5 | Cc1cnc(-c2cccc(C(C)(C)O)c2)c(F)c1-n1c(C)cc(OCc2ncc(F)cc2F)c(Cl)c1=O

Test: MRT in male Sprague-Dawley rat at 1 mg/kg, iv measured after 24 hrs by LC-MS/MS analysis
Assay type: ADME, organism-based
Settings: in vivo

MRT [h] | SMILES
1.1 | Cc1cnc(-c2ccnc(C(C)(C)O)n2)c(F)c1-n1c(C)cc(OCc2ncc(F)cc2F)c(C)c1=O
1.2 | Cc1cnc(-c2cccc(C(C)(C)O)c2)c(F)c1-n1c(C)cc(OCc2ncc(F)cc2F)c(Cl)c1=O

Test: Cmax in male Sprague-Dawley rat at 2 mg/kg, po measured after 24 hrs by LC-MS/MS analysis
Assay type: ADME, organism-based
Settings: in vivo

Cmax [µg/mL] | SMILES
0.496 | Cc1cnc(-c2ccnc(C(C)(C)O)n2)c(F)c1-n1c(C)cc(OCc2ncc(F)cc2F)c(C)c1=O
0.738 | Cc1cnc(-c2cccc(C(C)(C)O)c2)c(F)c1-n1c(C)cc(OCc2ncc(F)cc2F)c(Cl)c1=O

Test: AUClast in male Sprague-Dawley rat at 2 mg/kg, po measured after 24 hrs by LC-MS/MS analysis
Assay type: ADME, organism-based
Settings: in vivo

AUC(0-t) at 24 h [µg·h/mL] | SMILES
1.31 | Cc1cnc(-c2ccnc(C(C)(C)O)n2)c(F)c1-n1c(C)cc(OCc2ncc(F)cc2F)c(C)c1=O
1.98 | Cc1cnc(-c2cccc(C(C)(C)O)c2)c(F)c1-n1c(C)cc(OCc2ncc(F)cc2F)c(Cl)c1=O

Test: Oral bioavailability in male Sprague-Dawley rat at 2 mg/kg measured after 24 hrs by LC-MS/MS analysis
Assay type: ADME, organism-based
Settings: in vivo

bioavailability [%] | SMILES
56 | Cc1cnc(-c2ccnc(C(C)(C)O)n2)c(F)c1-n1c(C)cc(OCc2ncc(F)cc2F)c(C)c1=O
55 | Cc1cnc(-c2cccc(C(C)(C)O)c2)c(F)c1-n1c(C)cc(OCc2ncc(F)cc2F)c(Cl)c1=O
